Test results as given in patent US20250057911A1, “OVARY-TARGETING POLYPEPTIDE, AND DERIVATIVE AND THE USE THEREOF” (SHENZHEN INSTITUTES OF ADVANCEDTECHNOLOGY CHINESE ACADEMY …, priority 2022, published 2025).
Ends that are not written are not given here.

What was measured:
[1] = tested on: DHT-induced hyperandrogenic female mice; test: Hyperandrogen dihydrotestosterone (DHT)-induced mouse model, reproductive and metabolic symptoms; format: in vivo
Method: (§1) Wild type female mice at postnatal day 25 (D25) were randomly grouped into a control group (CTRL), a DHT group, and a DHT+OCN15 ([…] is the polypeptide set forth in SEQ ID NO: 1) group, with at least 8 mice in each group. The control group was implanted subcutaneously with an empty pump and gavaged with 200 μL of normal saline every day; the DHT group was implanted subcutaneously with a slow-release pump containing 5 mg of dihydrotestosterone (DHT) powder and gavaged with 200 μL of normal saline every day; and the DHT+OCN15 group was implanted subcutaneously with a slow-release pump containing 5 mg of DHT powder and gavaged with 200 μl of normal saline containing the polypeptide (500 μg/Kg) every day. The modeling time was 60 days.

oocytes = test: Oocyte post-ovulation aging model (in vitro aging in M16 medium); format: cell-based, mouse
Method: Wild type female mice were intraperitoneally injected with 5 IU PMSG (pregnant mare serum gonadotropin), followed by an intraperitoneal injection of 5 IU hCG (human chorionic gonadotropin) 48 h later for superovulation. Oocytes were collected after 14 h, and cumulus cells were removed using hyaluronidase. Then, the oocytes were randomly divided into the Aging group and the Aging+OCN15 group and cultured in M16 medium for aging. The Control group was aged for 0 h, the Aging group for 12 h, and the Aging+OCN15 group in M16 containing the polypeptide (1 μg/mL) for 12 h.

DHT model mice liver = test: Hyperandrogen-induced mouse liver lipid droplet accumulation (HE staining); format: in vivo; conditions: DHT+OCN15 treated group vs DHT model mice; FIG. 9
Method: as §1
The method for the induction of the mouse PCOS model by hyperandrogen DHT is described in Example 6. After modeling, the mouse liver was taken, fixed overnight by 4% paraformaldehyde (PFA), dehydrated by alcohol gradient, embedded by paraffin, sectioned (5 μm), and subjected to HE staining for morphological observation.

ovary [2] = test: Mouse ovary-targeting capacity of polypeptide ICG probe (small animal imaging); format: in vivo; conditions: adult mice, tail vein injection 100 μL/mouse, imaged after 24 h; FIG. 1
Method: A solution of the polypeptide ICG probe (containing SEQ ID NO: 1) prepared in Example 2, an ICG solution (2 mM), and PBS were injected intravenously into the tail of the adult mice at 100 μL/mouse. After 24 h, the mice were detected under an imager for small animals.

ovary [3] = test: Mouse ovary-targeting capacity of polypeptide AIE probe (small animal imaging); format: in vivo; conditions: adult mice, tail vein injection 100 μL/mouse, imaged after 24 h; FIG. 2
Method: The polypeptide AIE probe (containing SEQ ID NO: 1) prepared in Example 2, a scrambled polypeptide AIE probe, an AIE empty particle, and PBS were injected intravenously into the tail of the adult mice at 100 μL/mouse. After 24 h, the mice were detected under an imager for small animals.

mouse ovary = test: Localization of polypeptide targeting in mouse ovary (cryosection, laser confocal microscope); format: in vivo; conditions: ovaries from Example 4, 10 μm cryosections, DAPI; FIG. 3
Text: To further confirm the localization for the targeting of the polypeptide to the ovary, the four groups of mouse ovaries from Example 4 were fixed with 4% PFA, then cryosectioned (10 μm), stained for cell nuclei (DAPI), and observed for fluorescence localization under a laser confocal microscope.

YLGASVPSPDPLEPT [OCN15, mouse metabolite, ovary-targeting polypeptide]
anogenital distance ([1]; 500 μg/Kg gavage daily with DHT pump, 60 days after modeling, FIG. 4C): significantly improved | number of estrous days in ten days ([1]; 500 μg/Kg gavage daily with DHT pump, 60 days modeling, normal above 4 days, hyperandrogenic around 2 days, FIG. 4B): ~3 days | ovarian polycystic changes ([1]; 500 μg/Kg gavage daily with DHT pump, 60 days, FIG. 4A): reduce the polycystic changes | body weight ([1]; 500 μg/Kg gavage daily with DHT pump, FIG. 5A): alleviate the increase in body weight | body weight gain ([1]; 500 μg/Kg gavage daily with DHT pump, FIG. 5B): alleviate the increase in body weight and body weight gain caused by DHT to some extent | weight of gonadal fat ([1]; 500 μg/Kg gavage daily with DHT pump, FIG. 5C): reducing the weight of mouse gonadal fat | lean body mass ([1]; 500 μg/Kg gavage daily with DHT pump, FIG. 5D): increased lean body mass | blood glucose level after oral administration of glucose ([1]; at 30 min after oral glucose, 60 days after modeling, FIG. 4D): significant decrease in blood glucose level compared with the group with DHT alone | androgen receptor AR expression in the epidermal layer of the neck and back skin ([1]; day 60 of modeling, immunofluorescence, FIG. 6B): significantly reduce DHT-caused significant increase of androgen receptor AR expression | hair loss on the neck and back skin ([1]; day 60 of modeling, FIG. 6A): can significantly improve the phenomenon | oocyte fragmentation and degeneration (oocytes; 1 μg/mL polypeptide in M16, 12 h aging, FIG. 7A): ameliorate the fragmentation and degeneration caused by in vitro aging of oocytes | zona pellucida sclerosis (oocytes; 1 μg/mL polypeptide in M16, 12 h aging, FIG. 7B): ameliorate the zona pellucida sclerosis caused by in vitro aging of oocytes | in vitro fertilization rate (oocytes; 1 μg/mL polypeptide in M16, 12 h in vitro aging, FIG. 7C): improve the low fertilization rate caused by in vitro aging of oocytes | liver lipid droplet accumulation (DHT model mice liver): alleviated

CC1(C)C(/C=C/C=C/C=C/C=C2\N(CCCCS(=O)(=O)[O-])c3ccc4ccccc4c3C2(C)C)=[N+](CCCCS(=O)(=O)[O-])c2ccc3ccccc3c21.[Na+] [ICG, reference compound]
fluorescent signal at the ovarian site (ovary [2]): do not show a fluorescent signal at the ovarian site

OCN15-AIE: AIE probe containing SEQ ID NO: 1, polypeptide linked to AIE by click chemistry (DBCO linker) (YLGASVPSPDPLEPT; also: AIE probe attached via DBCO click linker, site not given here)
fluorescent signal at the ovarian site (ovary [3]): has a specific signal at the ovarian site | fluorescence localization in the ovary (mouse ovary): mainly targets the interstitial cell and the membrane cell in the mouse ovary

OCN15-ICG: ICG probe containing SEQ ID NO: 1, polypeptide linked to ICG by click chemistry (DBCO linker) (YLGASVPSPDPLEPT; also: ICG dye attached via DBCO click linker, site not given here)
fluorescent signal at the ovarian site (ovary [2]): has a specific signal at the ovarian site
